From article PMC12371492, “Poly-Arginine Tails and Helical Segments of Natural Antimicrobial Peptides Display Concerted Action at Membranes for Enhanced Antimicrobial Effects” (ACS Bio & Med Chem Au, 2025)
Where two headings read alike, the source gives them in different places. Ends that are not written are not given here.

Assays:
[1] = test system: Vibrio cholerae O1 El Tor strain C6706; type: cell-based; conditions: CM9-Hepes pH 7.4, 5 × 10^5 cfu/mL, 20 h at 37 °C shaking, OD 600 nm, triplicate
bacteria = bacteria and source not stated (discussion)
[2] = Calcein dye leakage assay on LUVs
Description: Calcein leakage assays were done on large unilamellar vesicles (LUVs) following a procedure previously described. , Briefly, a 3:1 POPC/POPG lipid film (containing 4 μmol total of lipids) was prepared in a round-bottom flask using the lipids dissolved in chloroform. The solvent was removed under N2 gas before drying overnight under vacuum. The next day, the lipid cake was hydrated with 300 μL of 80 mmol/L calcein dye (pH 7.4) to generate a suspension that was subjected to 3 freeze–thaw cycles before extrusion through a 0.1 μm polycarbonate filter placed in a mini extruder (Avanti Polar Lipids). Untrapped calcein was separated from the LUVs by chromatography using a Sephadex G-50 column run with HEPES buffer (50 mmol/L, 100 mmol/L NaCl, 0.3 mmol/L EDTA, pH 7.4). A total phosphorus assay was performed to determine the exact lipid concentration of the LUVs. After diluting the vesicles to a final concentration of ∼35 μmol/L, the LUVs were plated in 180 μL wells and exposed to 20 μL of TP4 solutions serially diluted from stock, as needed to generate peptide-to-lipid ratios (P/L) ranging from P/L = 1:2 and 1:1024. Triplicates of each well were run, and at least three independent assays were performed as well. The 96-well plate was incubated at 20 °C with shaking for 40 min. After equilibration at room temperature, the fluorescence was measured using a BioTek SynergyH1 plate reader (BioTek, Winooski, VT) using excitation and emission wavelengths of 490 and 520 nm, respectively. The fractional leakage produced by TP4 was calculated using the equation: %leakage=Ix−I0%/I100%−I0% where I x is the fluorescence intensity in a peptide-containing well, I 100% is the intensity of the positive control (100% leakage obtained with 20 μL of 1% Triton-X detergent), and I 0% is the intensity of the negative control (0% leakage obtained with 20 μL nanopure water). P1 was run in parallel for comparative purposes. The dose–response curves were fitted in GraphPad Prism using a modified version of the Hill equation to extract the EC50 as the P/L where half of the dye has been released. […]

[3] = test system: Escherichia coli (E. coli) MG1655; type: cell-based
Description: (§1) Minimum inhibitory concentrations were determined by broth microdilution technique. Two bacterial species were used: Gram-positive bacteria Staphylococcus epidermidis (S. epidermidis), derived from ATCC 14990 and Gram-negative bacteria Escherichia coli (E. coli) MG1655, respectively. S. epidermidis was grown in TSB, and E. coli was grown in MHB. Both were stored at 4 °C on their respective growth medium agar plates. Before the assay, bacteria were grown overnight in 5 mL of growth medium at 37 °C. The grown bacteria were further subcultured in 3 mL of growth medium by diluting to 1% until the O.D. reached 0.4–0.6 within 2.5–3 h. After the bacteria reached the mid log phase, further dilution was made to attain an O.D. of 0.001 to get a final of ∼10^5 CFU/mL in each well of a 96-well plate. An Opentron OT_2 robot pipetting system was used to automatically prepare serial dilutions of peptides and add the bacteria to attain a total volume of 100 μL in each well. The wells containing only medium served as a negative blank. The plate was then incubated for 24 h at 37 °C, and the O.D. of the plate was recorded at 600 nm using a BioTek (Agilent, Santa Clara, CA) microplate reader (Figure S1). The lowest concentration at which no bacterial growth was observed was considered the MIC of the peptide.

[4] = test system: Staphylococcus epidermidis (S. epidermidis), derived from ATCC 14990; type: cell-based
Description: as §1

[5] = broth microdilution, MHB, ~10^5 CFU/mL, 24 h at 37 °C, O.D. 600 nm, lowest concentration with no growth
[6] = broth microdilution, TSB, ~10^5 CFU/mL, 24 h at 37 °C, O.D. 600 nm, lowest concentration with no growth

Substance | MIC Vibrio cholerae [1] [µM] | MIC values (bacteria) [µM] | MIC E. coli [3, 5] [µM] | MIC S. epidermidis [4, 6] [µM] | also measured
FFHHIFRGIVHVGKTIHRLVTG-NH2 [P1, reference compound] | 16 | < 1 |  |  | 
FFHHIFRGIVHVGKTIHRLVTGRRRRR-NH2 [P1-R5, P1 with the R5 motif added at the C-terminal end] |  |  |  |  | EC50, L/P yielding 50% calcein leakage ([2]; 3:1 POPC/POPG LUVs ~35 μmol/L lipid, HEPES pH 7.4, 40 min at 20 °C, fluorescence 490/520 nm, ± standard error, three assays in triplicate): 97.2 ± 3.4 L/P; calcein leakage ([2]; POPC/POPG liposomes, P/L of 1:10): 100%; factor more active than P1 (EC50 ratio) ([2]; calcein leakage, 3:1 POPC/POPG LUVs): 3.4 fold
FIHHIIGGLFSAGKAIHRLI-NH2 [TP4-noR5] |  |  | 16 | 2 | 
FIHHIIGGLFSAGKAIHRLIRRRRR-NH2 [TP4] | 1 | < 1 |  |  | MIC E. coli ([3]; MG1655, 24 h): 4 µM; MIC S. epidermidis ([4]; ATCC 14990, 24 h): 1 µM
QLAQALAAALAALAQGW-NH2 [NP] |  |  | >64 | >64 | 
QLAQALAAALAALAQGWRRRRR-NH2 [NP-R5] |  |  | 7.5 | 2 | 
